In US10610520B2, “Heterocyclic compound” (Takeda Pharmaceutical Company Limited, priority 2016, dated 2020):

target: T1, His-hMAGL (recombinant polyhistidine tagged human MAGL protein) (Homo sapiens, UniProt Q99685); assay: Measurement of MAGL inhibitory activity (arachidonic acid production from 2-arachidonylglycerol, RapidFire-mass spectrometry); assay type: biochemical; conditions: MAGL inhibitory rate, test compound 10 μM, 60 min preincubation, 2-arachidonylglycerol substrate
T1 construct: made in house; host or cells: E. coli BL21(DE3)
T1 sequence (Q99685 1-303): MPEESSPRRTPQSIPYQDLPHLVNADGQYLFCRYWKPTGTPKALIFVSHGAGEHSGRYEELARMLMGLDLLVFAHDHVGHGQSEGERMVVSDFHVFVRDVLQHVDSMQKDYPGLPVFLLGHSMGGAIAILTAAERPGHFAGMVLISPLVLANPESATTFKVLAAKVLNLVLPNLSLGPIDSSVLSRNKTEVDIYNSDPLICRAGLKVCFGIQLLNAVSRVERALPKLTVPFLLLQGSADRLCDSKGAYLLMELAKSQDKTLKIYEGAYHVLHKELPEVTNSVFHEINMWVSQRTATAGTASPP
Method in brief: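 Arachidonic acid formed was quantified by online solid-phase extraction and triple-quadrupole MS in negative SRM mode against a d8 internal standard. Reaction: recombinant His-hMAGL (7.5 ng/mL, pH 7.5 Tris buffer with Triton X-100 and BSA) plus 2-AG (5 μL of 150 μM stock) for 10 min at room temperature, quenched with 2% formic acid. Percent inhibition corrected for enzyme-free background.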

Row | inhibition at 10 µM | Compound
1 | 100% | O=C1NC2(CO1)CN(C(=O)c1sc3c(F)c(OC(F)(F)F)cc(F)c3c1Cl)C2 [Example 315, 2-((3-chloro-4,7-difluoro-6-(trifluoromethoxy)-1-benzothiophen-2-yl)carbonyl)-7-oxa-2,5-diazaspiro[3.4]octan-6-one]
2 | 99% | CC(C)(C)c1ccc(-c2ccc(C(=O)N3CC4(CCC(=O)N4)C3)cc2)cc1 [Example 54, 2-((4′-tert-butylbiphenyl-4-yl)carbonyl)-2,5-diazaspiro[3.4]octan-6-one]
3 | 100% | O=C1CCC2(CN(C(=O)c3sc4cc(-c5ccccc5OC(F)(F)F)ccc4c3Cl)C2)N1 [Example 199, 2-((3-chloro-6-(2-(trifluoromethoxy)phenyl)-1-benzothiophen-2-yl)carbonyl)-2,5-diazaspiro[3.4]octan-6-one]
4 | 98% | O=C1CCC2(CN(C(=O)c3sc(-c4cccc(C(F)(F)F)c4)cc3Cl)C2)N1 [Example 177, 2-((3-chloro-5-(3-(trifluoromethyl)phenyl)-2-thienyl)carbonyl)-2,5-diazaspiro[3.4]octan-6-one]
5 | 92% | Cc1c(C(=O)N2CC3(CCC(=O)N3)C2)sc2ccccc12 [Example 141, 2-((3-methyl-1-benzothiophen-2-yl)carbonyl)-2,5-diazaspiro[3.4]octan-6-one]
6 | 100% | Cc1ccsc1-c1ccc2c(Cl)c(C(=O)N3CC4(CCC(=O)N4)C3)sc2c1 [Example 235, 2-((3-chloro-6-(3-methyl-2-thienyl)-1-benozthiophen-2-yl)carbonyl)-2,5-diazaspiro[3.4]octan-6-one]
7 | 100% | O=C1NC2(CO1)CN(C(=O)c1sc3c(F)c(OC(F)(F)F)ccc3c1C(F)F)C2 [Example 360, 2-((3-(difluoromethyl)-7-fluoro-6-(trifluoromethoxy)-1-benzothiophen-2-yl)carbonyl)-7-oxa-2,5-diazaspiro[3.4]octan-6-one]
8 | 93% | O=C1CCC2(CN(C(=O)c3ccc(-c4cccc5c4OCC5)cc3)C2)N1 [Example 94, 2-(4-(2,3-dihydro-1-benzofuran-7-yl)benzoyl)-2,5-diazaspiro[3.4]octan-6-one]
9 | 101% | O=C1CCC2(CN(C(=O)N3CCN(C(c4ccc(F)cc4)c4ccc(F)cc4)CC3)C2)N1 [Example 113, 2-((4-(bis(4-fluorophenyl)methyl)piperazin-1-yl)carbonyl)-2,5-diazaspiro[3.4]octan-6-one]
10 | 101% | CC(Oc1ccc(C(F)(F)F)cc1F)C1CN(C(=O)N2CC3(CCC(=O)N3)C2)C1 (centres unmarked) [Example 10, 2-((3-(1-(2-fluoro-4-(trifluoromethyl)phenoxy)ethyl)azetidin-1-yl)carbonyl)-2,5-diazaspiro[3.4]octan-6-one]
11 | 92% | O=C1CCC2(CN(C(=O)[C@H]3CC[C@H](c4ccc(O)cc4)CC3)C2)N1 [Example 173, 2-((trans-4-(4-hydroxyphenyl)cyclohexyl)carbonyl)-2,5-diazaspiro[3.4]octan-6-one]
12 | 100% | O=C1CCC2(CN(C(=O)c3sc(-c4cccc(OCC(F)(F)F)c4)cc3Cl)C2)N1 [Example 178, 2-((3-chloro-5-(3-(2,2,2-trifluoroethoxy)phenyl)-2-thienyl)carbonyl)-2,5-diazaspiro[3.4]octan-6-one]
13 | 93% | O=C1CCC2(CN(C(=O)c3ccc(-c4cc(F)c(F)c(F)c4)cc3)C2)N1 [Example 68, 2-((3′,4′,5′-trifluorobiphenyl-4-yl)carbonyl)-2,5-diazaspiro[3.4]octan-6-one]
14 | 94% | O=C1CCC2(CCN(C(=O)N3CC(COc4ccc5c(c4)CCCC5)C3)C2)N1 (centres unmarked) [Example 320, 7-((3-((5,6,7,8-tetrahydronaphthalen-2-yloxy)methyl)azetidin-1-yl)carbonyl)-1,7-diazaspiro[4.4]nonan-2-one]
15 | 100% | O=C1NC2(CCN(C(=O)c3sc4cc(OC(F)(F)F)ccc4c3Cl)C2)CO1 (centres unmarked) [Example 321, 7-((3-chloro-6-(trifluoromethoxy)-1-benzothiophen-2-yl)carbonyl)-3-oxa-1,7-diazaspiro[4.4]nonan-2-one]
16 | 100% | O=C1NC2(CO1)CN(C(=O)c1sc3cc(C4=CCC(F)(F)CC4)cc(F)c3c1C1=CCC(F)(F)CC1)C2 [Example 310, 2-((3,6-bis(4,4-difluorocyclohex-1-en-1-yl)-4-fluoro-1-benzothiophen-2-yl)carbonyl)-7-oxa-2,5-diazaspiro[3.4]octan-6-one]
17 | 100% | O=C1NC2(CO1)CN(C(=O)c1sc3c(C(F)(F)F)cccc3c1OCC(F)(F)F)C2 [Example 271, 2-((3-(2,2,2-trifluoroethoxy)-7-(trifluoromethyl)-1-benzothiophen-2-yl)carbonyl)-7-oxa-2,5-diazaspiro[3.4]octan-6-one]
18 | 100% | O=C1NC2(CO1)CN(C(=O)c1sc3c(F)ccc(OC(F)(F)F)c3c1Cl)C2 [Example 301, 2-((3-chloro-7-fluoro-4-(trifluoromethoxy)-1-benzothiophen-2-yl)carbonyl)-7-oxa-2,5-diazaspiro[3.4]octan-6-one]
19 | 99% | O=C1CCC2(CN(C(=O)c3ccc(-c4cccc(C(F)(F)F)c4)c(C(F)(F)F)c3)C2)N1 [Example 131, 2-((2,3′-bis(trifluoromethyl)biphenyl-4-yl)carbonyl)-2,5-diazaspiro[3.4]octan-6-one]
20 | 100% | O=C1CCC2(CN(C(=O)c3sc(-c4cccc(C5(C(F)(F)F)CC5)c4)cc3Cl)C2)N1 [Example 246, 2-((3-chloro-5-(3-(1-(trifluoromethyl)cyclopropyl)phenyl)-2-thienyl)carbonyl)-2,5-diazaspiro[3.4]octan-6-one]
21 | 98% | O=C1CCC2(CN(C(=O)c3sc4ccccc4c3Cl)C2)N1 [Example 134, 2-((3-chloro-1-benzothiophen-2-yl)carbonyl)-2,5-diazaspiro[3.4]octan-6-one]
22 | 99% | O=C1CCC2(CN(C(=O)c3ccc(-c4cccc(C5(C(F)(F)F)CC5)c4)cc3)C2)N1 [Example 64, 2-((3′-(1-(trifluoromethyl)cyclopropyl)biphenyl-4-yl)carbonyl)-2,5-diazaspiro[3.4]octan-6-one]
23 | 100% | O=C1CCC2(CN(C(=O)c3ccc(-c4ccc(C(F)(F)F)c(Cl)c4)cc3)C2)N1 [Example 44, 2-((3′-chloro-4′-(trifluoromethyl)biphenyl-4-yl)carbonyl)-2,5-diazaspiro[3.4]octan-6-one]
24 | 100% | O=C1NC2(CCN(C(=O)c3sc4cc(C(F)(F)F)c(F)cc4c3Cl)C2)CO1 (centres unmarked) [Example 343, 7-((3-chloro-5-fluoro-6-(trifluoromethyl)-1-benzothiophen-2-yl)carbonyl)-3-oxa-1,7-diazaspiro[4.4]nonan-2-one]
25 | 100% | COc1c(C(=O)N2CC3(COC(=O)N3)C2)sc2c(C(F)(F)F)cccc12 [Example 270, 2-((3-methoxy-7-(trifluoromethyl)-1-benzothiophen-2-yl)carbonyl)-7-oxa-2,5-diazaspiro[3.4]octan-6-one]
26 | 94% | COc1c(F)cc(-c2ccc(C(=O)N3CC4(CCC(=O)N4)C3)cc2)cc1F [Example 71, 2-((3′,5′-difluoro-4′-methoxybiphenyl-4-yl)carbonyl)-2,5-diazaspiro[3.4]octan-6-one]
